pIC50: −log10 of the molar value.
These molecules were tested against T1, human EHMT2 913-1193 (Homo sapiens, UniProt Q96KQ7) (assay: EHMT2 enzyme assay on histone peptide substrate (EHMT2 PEP)). Details: Table VI; read-out: EHMT2 PEP IC50.
T1 construct: recombinant purified human EHMT2 913-1193, Viva; purchased Viva
T1 sequence (Q96KQ7 913-1193): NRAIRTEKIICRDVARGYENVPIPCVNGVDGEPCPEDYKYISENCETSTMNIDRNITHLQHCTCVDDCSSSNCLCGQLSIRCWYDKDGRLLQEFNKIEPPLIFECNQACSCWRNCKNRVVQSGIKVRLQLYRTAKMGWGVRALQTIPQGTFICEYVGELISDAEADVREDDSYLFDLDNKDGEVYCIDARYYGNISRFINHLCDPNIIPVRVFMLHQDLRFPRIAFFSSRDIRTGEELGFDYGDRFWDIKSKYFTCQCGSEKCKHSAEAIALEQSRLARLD
Format: biochemical
Outline: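 Radiometric methyltransferase read-out: ^3H-methyl transfer from ^3H-SAM onto biotinylated histone peptide, captured on streptavidin Flashplates after 60 min reaction at room temperature. Enzyme 0.031 nM, preincubated 30 min with inhibitor; buffer 20 mM Bicine pH 7.5 with 1 mM TCEP; top compound concentration 50 μM final, 2% DMSO.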
Work on `COc1cc2c(C3CCOCC3)cc(N(C)C)nc2cc1OCCCN1CCCC1` [Compound 825] yielded a pIC50 of 6.00 to 7.00. For `CNc1cc(C2CCN(CCC(F)(F)F)CC2)c2cc(OC)c(OCCCN3CCCC3)cc2n1` [Compound 832], the pIC50 was > 7.00. With `CNc1cc(C2CCN(CC(F)(F)F)CC2)c2cc(OC)c(OCCCN3CCCC3)cc2n1` [Compound 833] the pIC50 was > 7.00. `COc1cc2c(C3CCN(C(C)=O)CC3)cc(C)nc2cc1OCCCN1CCCC1` [Compound 834] was tested, and the pIC50 was 6.00 to 7.00. Molecule `CCS(=O)(=O)N1CCC(c2cc(C)nc3cc(OCCCN4CCCC4)c(OC)cc23)CC1` [Compound 836] has a pIC50 of 6.00 to 7.00. `COc1cc2c(C3CCN(CC(F)(F)F)CC3)cc(C)nc2cc1OCCCN1CCCC1` [Compound 837] gave a pIC50 of 6.00 to 7.00. For `COc1cc2c(C3CCN(CCC(F)(F)F)CC3)cc(C)nc2cc1OCCCN1CCCC1` [Compound 838], the pIC50 was > 7.00. In the case of `CNc1cc(C2CCN(CCOC)CC2)c2cc(OC)c(OCCCN3CCCC3)cc2n1` [Compound 839], the pIC50 was > 7.00. For `COc1cc2c(C3CCN(CC(F)(F)F)CC3)nc(C)nc2cc1OCCCN1CCCC1` [Compound 841], the pIC50 was < 5.00. `CNc1cc(C)nc(Nc2ccc(OC)c(C#CC3CCNC3)c2)n1` (centres unmarked) [Compound 845] was tested, and the pIC50 was 6.00 to 7.00. `CNc1cc(C)nc(Nc2ccc(OC)c(C#CC3CCCN3)c2)n1` (centres unmarked) [Compound 846] was tested, and the pIC50 was > 7.00. `CNc1cc(C)nc(Nc2ccc(OC)c(C#CC3CCN(C)C3)c2)n1` (centres unmarked) [Compound 847] gave a pIC50 of 6.00 to 7.00. `CNc1cc(C)nc(Nc2ccc(OC)c(C#CC3CCCN3C)c2)n1` (centres unmarked) [Compound 848] was tested, and the pIC50 was > 7.00. `CNC(=O)c1cc(C)nc(Nc2ccc(OC)c(OCCCN3CCCC3)c2)n1` [Compound 854] was tested, and the pIC50 was < 5.00. With `CNc1cc(C)c2cc(OC)c(C#CCN3CCCC3)cc2n1` [Compound 859] the pIC50 was > 7.00. `CNc1cc(C)nc(Nc2ccc(OC)c(C#CCN3CCN(C)CC3)c2)n1` [Compound 860] was tested, and the pIC50 was < 5.00. For `COc1cc2c(C3CCN([C@@H]4CCOC4)CC3)cc(C)nc2cc1OCCCN1CCCC1` [Compound 863], the pIC50 was > 7.00.
